Assay results reported in article PMC4618636 (Pharmacology Research & Perspectives, 2015).
Where “and” joins values, the source holds several entries; their conditions need not be identical. Identical values can stand only once. Like-named read-outs stand apart in the source and are kept apart here.

Tests used:
CYP3A4 [1] = settings: in vivo induction value used for the RIS calibration; cited from earlier work
CYP2B6 = settings: for CYP2B6 induction: negative controls, any concentration tested (quinidine 0.1–250 μmol/L, flumazenil 0.05–50 μmol/L), data not shown; for CYP2B6 Indmax: mean from two experiments; for CYP2B6 % PB: relative to positive control phenobarbital, equation 2
CYP3A4 [2] = settings: for CYP3A4 induction: negative controls, any concentration tested (quinidine 0.1–250 μmol/L, flumazenil 0.05–50 μmol/L), data not shown; for CYP3A4 RIS: mean of two experiments; for CYP3A4 % Rif: relative to positive control rifampicin, equation 2; for CYP3A4 Ind50: column headed Ind50 in Table 5
[3] = upcyte Donor 10-03, mean from two experiments
[4] = upcyte Donor 10-03, values of two experiments
[5] = upcyte Donor 151-03, mean from two experiments
[6] = upcyte Donor 151-03, values of two experiments
[7] = upcyte Donor 422A-03, mean from two experiments
[8] = upcyte Donor 422A-03, values of two experiments
[9] = upcyte Donor 653-03, mean from two experiments
[10] = upcyte Donor 653-03, values of two experiments

| Compound | % Decrease in midazolam AUC (CYP3A4 [1]) [%] | CYP2B6 Indmax (CYP2B6; upcyte Donor 10-03) | CYP2B6 % PB (CYP2B6; upcyte Donor 10-03) | CYP2B6 Indmax (CYP2B6; upcyte Donor 151-03) | CYP2B6 % PB (CYP2B6; upcyte Donor 151-03) | CYP2B6 Indmax (CYP2B6; upcyte Donor 422A-03) | CYP2B6 % PB (CYP2B6; upcyte Donor 422A-03) | CYP2B6 Indmax (CYP2B6; upcyte Donor 653-03) | CYP2B6 % PB (CYP2B6; upcyte Donor 653-03) | CYP3A4 Indmax (CYP3A4 [2]; [3]) | CYP3A4 RIS (CYP3A4 [2]; upcyte Donor 10-03) | CYP3A4 % Rif (CYP3A4 [2]; upcyte Donor 10-03) | CYP3A4 Indmax (CYP3A4 [2]; [5]) | CYP3A4 RIS (CYP3A4 [2]; upcyte Donor 151-03) | CYP3A4 % Rif (CYP3A4 [2]; upcyte Donor 151-03) | CYP3A4 Indmax (CYP3A4 [2]; [6]) | CYP3A4 Indmax (CYP3A4 [2]; [7]) | CYP3A4 RIS (CYP3A4 [2]; upcyte Donor 422A-03) | CYP3A4 % Rif (CYP3A4 [2]; upcyte Donor 422A-03) | CYP3A4 Indmax (CYP3A4 [2]; [8]) | further results |
| --- | --- | --- | --- | --- | --- | --- | --- | --- | --- | --- | --- | --- | --- | --- | --- | --- | --- | --- | --- | --- | --- |
| C=C[C@H]1C[N@@]2CC[C@H]1C[C@@H]2[C@@H](O)c1ccnc2ccc(OC)cc12 [Quinidine, quinidine] | 0 | No induction | No induction | No induction | No induction | No induction | No induction | No induction | No induction | No induction | No induction | No induction | No induction | No induction | No induction | No induction | No induction | No induction | No induction | No induction | CYP2B6 induction (CYP2B6): did not induce; CYP3A4 induction (CYP3A4 [2]): did not induce; CYP3A4 Indmax (CYP3A4 [2]; [4]): No induction; CYP3A4 Ind50 (CYP3A4 [2]; upcyte Donor 653-03): No induction; CYP3A4 Indmax (CYP3A4 [2]; [9]): No induction; CYP3A4 RIS (CYP3A4 [2]; upcyte Donor 653-03): No induction; CYP3A4 Indmax (CYP3A4 [2]; [10]): No induction |
| C[C@@H]1C[C@H]2[C@@H]3CCC4=CC(=O)C=C[C@]4(C)[C@@]3(F)[C@@H](O)C[C@]2(C)[C@@]1(O)C(=O)CO [Dexamethasone, dexamethasone] | – | No induction | No induction | No induction | No induction | No induction | No induction | No induction | No induction | – | – | – | – | – | – | – | – | – | – | – | – |
| O=C1NC(=O)C(c2ccccc2)(c2ccccc2)N1 [Phenytoin, phenytoin] | 94 | 3.6 fold | 88% | 2.7 fold | 89% | 4.0 fold | 48% | 2.8 fold | 85% | 14.6 fold | 1.970 | 45% | 4.7 fold | 3.908 | 60% | 5.7 fold and 3.8 fold | 15.8 fold | 0.464 | 137% | 14.8 fold and 16.9 fold | CYP3A4 induction, % of rifampicin maximal induction (CYP3A4 [2]; upcyte Donor 653-03): 120%; CYP3A4 Ind50 (CYP3A4 [2]; upcyte Donor 653-03): 59; CYP3A4 Indmax (CYP3A4 [2]; [9]): 6.3 fold; CYP3A4 RIS (CYP3A4 [2]; upcyte Donor 653-03): 4.341; CYP3A4 Indmax (CYP3A4 [2]; [10]): 7.4 fold and 5.2 fold |
| CCC1(c2ccccc2)C(=O)NC(=O)NC1=O [Phenobarbital, phenobarbital] | 70 | 3.9 fold | 100% | 2.9 fold | 100% | 7.3 fold | 100% | 3.1 fold | 100% | 23.3 fold | 0.685 | 74% | 5.2 fold | 2.211 | 68% | 5.5 fold and 5.0 fold | 11.3 fold | 1.727 | 95% | 10.7 fold and 11.8 fold | CYP3A4 Indmax (CYP3A4 [2]; [4]): 23.8 fold and 22.9 fold; CYP3A4 Ind50 (CYP3A4 [2]; upcyte Donor 653-03): 120; CYP3A4 Indmax (CYP3A4 [2]; [9]): 11.8 fold; CYP3A4 RIS (CYP3A4 [2]; upcyte Donor 653-03): 2.198; CYP3A4 Indmax (CYP3A4 [2]; [10]): 13.0 fold and 10.5 fold |
| Cc1c(C)c2c(c(C)c1O)CCC(C)(COc1ccc(CC3SC(=O)NC3=O)cc1)O2 (centres unmarked) [Troglitazone, troglitazone] | 67 | 5.4 fold | 150% | 2.1 fold | 57% | 5.0 fold | 63% | 2.3 fold | 63% | 4.7 fold | 0.083 | 12% | 1.8 fold | 0.094 | 13% | 2.3 fold and 1.3 fold | 2.7 fold | 1.030 | 15% | 2.6 fold and 2.7 fold | CYP3A4 Indmax (CYP3A4 [2]; [4]): 5.0 fold and 4.4 fold; CYP3A4 Ind50 (CYP3A4 [2]; upcyte Donor 653-03): 14; CYP3A4 Indmax (CYP3A4 [2]; [9]): 2.2 fold; CYP3A4 RIS (CYP3A4 [2]; upcyte Donor 653-03): 0.466; CYP3A4 Indmax (CYP3A4 [2]; [10]): 1.8 fold and 2.6 fold |
| CO[C@H]1/C=C/O[C@@]2(C)Oc3c(C)c(O)c4c(O)c(c(/C=N/N5CCN(C)CC5)c(O)c4c3C2=O)NC(=O)/C(C)=C\C=C\[C@H](C)[C@H](O)[C@@H](C)[C@@H](O)[C@@H](C)[C@H](OC(C)=O)[C@@H]1C [Rifampicin, rifampicin] | – | 2.0 fold | 34% | 1.3 fold | 14% | 7.8 fold | 108% | 1.6 fold | 29% | – | – | – | – | – | – | – | – | – | – | – | – |
| NC(=O)N1c2ccccc2C=Cc2ccccc21 [Carbamazepine, carbamazepine] | 95 | 2.0 fold | 33% | 2.3 fold | 68% | 4.3 fold | 52% | 1.4 fold | 17% | 4.8 fold | 2.675 | 13% | 3.8 fold | 3.071 | 45% | 4.2 fold and 3.4 fold | 4.0 fold | 1.940 | 28% | 4.0 fold and 4.1 fold | CYP3A4 Indmax (CYP3A4 [2]; [4]): 5.5 fold and 4.1 fold; CYP3A4 Ind50 (CYP3A4 [2]; upcyte Donor 653-03): 52; CYP3A4 Indmax (CYP3A4 [2]; [9]): 5.7 fold; CYP3A4 RIS (CYP3A4 [2]; upcyte Donor 653-03): 4.138; CYP3A4 Indmax (CYP3A4 [2]; [10]): 6.2 fold and 5.2 fold |
| CCc1ccc(CCOc2ccc(CC3SC(=O)NC3=O)cc2)nc1 (centres unmarked) [Pioglitazone, pioglitazone] | 26 | 2.6 fold | 55% | 1.9 fold | 49% | 3.6 fold | 42% | 2.1 fold | 54% | 4.3 fold | 0.0079 | 11% | 4.0 fold | 0.0040 | 48% | 4.0, 4.0 fold | 2.6 fold | 0.0040 | 14% | 2.3 fold and 2.8 fold | CYP3A4 Indmax (CYP3A4 [2]; [4]): 4.4 fold and 4.2 fold; CYP3A4 Ind50 (CYP3A4 [2]; upcyte Donor 653-03): 91; CYP3A4 Indmax (CYP3A4 [2]; [9]): 9.2 fold; CYP3A4 RIS (CYP3A4 [2]; upcyte Donor 653-03): 0.0066 |
| CCOC(=O)c1ncn2c1CN(C)C(=O)c1cc(F)ccc1-2 [Flumazenil, flumazenil] | 0 | No induction | No induction | No induction | No induction | No induction | No induction | No induction | No induction | No induction | No induction | No induction | No induction | No induction | No induction | No induction | No induction | No induction | No induction | No induction | CYP2B6 induction (CYP2B6): did not induce; CYP3A4 induction (CYP3A4 [2]): did not induce; CYP3A4 Indmax (CYP3A4 [2]; [4]): No induction; CYP3A4 Ind50 (CYP3A4 [2]; upcyte Donor 653-03): No induction; CYP3A4 Indmax (CYP3A4 [2]; [9]): No induction; CYP3A4 RIS (CYP3A4 [2]; upcyte Donor 653-03): No induction; CYP3A4 Indmax (CYP3A4 [2]; [10]): No induction |
